Experiments:
Assay in all cases: normalised response (% of control), CellTiter-Glo; higher = more viable cells (100 = DMSO, 0 = benzethonium chloride kill control)
Details in all cases: incubation time: 72 h
[1] = test system: MFM-223
How it was run: (§1)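 Compound was dispensed into 384-well plates at 5 concentrations in 10-fold steps spanning a 10,000-fold range specific to that compound. Breast cancer cell lines were added as 20 µl suspension and left for 72 h before CellTox Green fluorescence (485/520 nm) and then CellTiter-Glo luminescence, read after 10 min at room temperature. Each reported value is the normalised signal at one concentration, with 0.1 % DMSO set at 100 and a positive kill control at 0 on each plate.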

[2] = test system: CAL-148
How it was run: as §1

[3] = test system: MDA-MB-436
How it was run: as §1

[4] = test system: MDA-MB-453
How it was run: as §1

[5] = test system: BT-474
How it was run: as §1

[6] = test system: MDA-MB-231
How it was run: as §1

[7] = test system: DU-4475
How it was run: as §1

[8] = test system: HCC1599
How it was run: as §1

[9] = test system: MCF-10A
How it was run: as §1

[10] = test system: CAL-85-1
How it was run: as §1

[11] = test system: CAL-51
How it was run: as §1

[12] = test system: HDQ-P1
How it was run: as §1

[13] = test system: HCC1143
How it was run: as §1

[14] = test system: Hs578T
How it was run: as §1

[15] = test system: HCC1937
How it was run: as §1

[16] = test system: BT-549
How it was run: as §1

[17] = test system: SK-BR-3
How it was run: as §1

[18] = test system: CAL-120
How it was run: as §1

[19] = test system: MDA-MB-468
How it was run: as §1

Row | SMILES | normalised response [1] [%] | normalised response [2] [%] | normalised response [3] [%] | normalised response [4] [%] | normalised response [5] [%] | normalised response [6] [%] | normalised response [7] [%] | normalised response [8] [%] | normalised response [9] [%] | normalised response [10] [%] | normalised response [11] [%] | normalised response [12] [%] | normalised response [13] [%] | normalised response [14] [%] | normalised response [15] [%] | normalised response [16] [%] | normalised response [17] [%] | normalised response [18] [%] | normalised response [19] [%]
1 | CC(=O)c1c(C)c2cnc(Nc3ccc(N4CCNCC4)cn3)nc2n(C2CCCC2)c1=O [Palbociclib] (1 nM) | 90.3 | 88.4 | 101 | 99.2 | 89.6 | 91.6 | 97.8 | 96.1 | 89.3 | 97.8 | 118 | 90.1 | 88 | 95.7 | 101 | 100 | 86 | 95 | 91.9
2 | CC(C)(C)c1cnc(CSc2cnc(NC(=O)C3CCNCC3)s2)o1 [SNS-032] (10 nM) | 97.2 | 98.5 | 101 | 99.6 | 93.4 | 96.5 | 99.2 | 107 | 105 | 109 | 65.3 | 92.1 | 89.7 | 102 | 97.8 | 95.1 | 95.8 | 96.6 | 96.7
3 | C[C@]1(O)C[C@@H](c2nc(-c3ccc4ccc(-c5ccccc5)nc4c3)c3c(N)nccn32)C1 [Linsitinib] (10 nM) | 92.8 | 85.6 | 89.2 | 99.3 | 93.7 | 94.8 | 94.9 | 78.5 | 88.9 | 95 | 92.4 | 99 | 96.1 | 96.1 | 101 | 94.4 | 76.1 | 102 | 90.8
4 | Cn1cc(C2=Nc3cc(NC(=O)C(N)C4CCCCC4)cc4c3C2=CNNC4=O)cn1 (stereo unspecified) (1 nM) | 86.7 | 91.3 | 86.7 | 84.3 | 93.8 | 95 | 98.3 | 97.4 | 80 | 95.9 | 103 | 91.4 | 86.8 | 94 | 94.1 | 98.2 | 82.5 | 97.1 | 91.2

— the supplement of paper PMC4862054
